Measured values from US10399950B2, “Substituted amino azoles as plant growth regulators” (SYNGENTA PARTICIPATIONS AG, priority 2013, dated 2019).

Legend:
[1] = test system: Wheat (Triticum aestivum) seeds of the variety Arina; assay: Wheat assay: plant (root and shoot) area and curliness of the roots; assay type: in vivo; settings: seeds in pouches with 10 mL compound solution; scanned twelve days after sowing/application
Method: Two bioassays were developed in order to assay the activity of the compounds of the present invention. In the first assay, the activity of the compound was quantified in beans based on its effect on the elongation of the petiole of the second leaf. In the second assay, the compound's effect on the root growth of wheat was determined. The test compounds were dissolved in small volumes of dimethyl sulfoxide and diluted to the appropriate concentration with water. Wheat (Triticum aestivum) seeds of the variety Arina were sown in pouches (14.7×13.2 cm) containing 10 mL of the appropriate compound solution. The pouches were stored at 17° C. for three days to enable the seeds to germinate. Plants were then stored at 5° C. Twelve days after sowing/application, plants were removed from the pouches and scanned. The effect of the compounds was quantified by determining plant (root and shoot) area and curliness of the roots (curliness is an indicator of brassinosteroid-type activity).

[2] = target: T1, Arabidopsis BIN2 kinase (Uniprot Q39011), His6-BIN2 (Arabidopsis thaliana, UniProt Q39011); assay: In vitro assay for inhibition of plant GSK3/shaggy-like kinase activity (ADP-Glo); assay type: biochemical; settings: compounds at 5 μM; 5 μM ATP; myelin basic protein substrate; 1 h at 20° C.; triplicate; read-out: inhibition of the activity of His6-BIN2 relative to the solvent vehicle control
T1 construct: made in house; host or cells: E. coli BL21
T1 sequence (Q39011 1-380): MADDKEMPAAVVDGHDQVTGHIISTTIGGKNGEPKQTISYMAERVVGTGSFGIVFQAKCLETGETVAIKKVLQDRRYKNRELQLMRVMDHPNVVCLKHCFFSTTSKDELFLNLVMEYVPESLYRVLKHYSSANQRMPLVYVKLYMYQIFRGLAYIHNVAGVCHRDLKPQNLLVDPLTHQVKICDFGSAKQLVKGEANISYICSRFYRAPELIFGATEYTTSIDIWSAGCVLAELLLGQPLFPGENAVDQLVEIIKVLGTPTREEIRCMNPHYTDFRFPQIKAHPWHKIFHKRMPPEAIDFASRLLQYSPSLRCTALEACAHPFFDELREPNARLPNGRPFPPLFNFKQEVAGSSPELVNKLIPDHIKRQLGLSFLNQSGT
Method: Arabidopsis BIN2 kinase (Uniprot Q39011) was produced in E. coli BL21 as an N-terminal hexahistidine fusion protein. In vitro kinase assays were performed by incubating 50 ng His6-BIN2 protein with 5 μg myelin basic protein (Sigma-Aldrich) as substrate and 5 μM ATP as co-substrate in reaction buffer consisting of 40 mM Tris-HCl, 20 mM MgCl2 and 0.1 mg/mL bovine serum albumin in a final reaction volume of 50 μl. Enzyme activity was assessed in the absence and presence of compounds (described in Tables A and B) at 5 μM by measuring the level of ADP produced after incubation for 1 h at 20° C. using an enzyme-coupled bioluminescent assay (ADP-Glo, Promega Corp.). The experiment was performed in triplicate and principaly on the acid form (as it the active A1).

melting point	inhibition at 5 µM [2]	Structure (SMILES)	curliness of the roots (indicator of brassinosteroid-type activity) [1]
118 to 119 °C	–	COC(=O)CCC(=O)Nc1ncc(C#N)s1 [A1, Methyl 4-[(5-cyanothiazol-2-yl)amino]-4-oxo-butanoate]	curly root phenotype
–	≥ 20%	N#Cc1cnc(NC(=O)CCC(=O)O)s1 [A5, 4-[(5-cyanothiazol-2-yl)amino]-4-oxo-butanoic acid]	curly root phenotype
